According to patent EP4389762A1, “INHIBITORS OF DUX4 ACTIVITY AND THEIR USE IN THERAPY” (Ospedale San Raffaele S.r.l., priority 2022, dated 2024):

Key:
DUX4 dbd = target: T1, DUX4 dbd (Homo sapiens, UniProt Q9UBX2); assay: His pull-down assay; format: binding; conditions: purified His-DUX4 dbd immobilized, biotinylated MATR3 peptides
T1 construct: employing pETGB1-6xHis-DUX4 dbd (residues 1-159) vector as template; GB1; made in house; host or cells: E. coli Rosetta2(DE3) pLys
Procedure: To test the interaction between 6xHis-DUX4 dbd and MATR3 synthetic peptides (prepared by CASLO; Lot No.: P230321-01-01, P230321-01-02, Lot No.: P230321-01-03), 40 pmol of 6xHis-DUX4 dbd were immobilized on His-Select Nickel Affinity gel beads (Sigma) incubating 1 hour on rotation at 4°C in IPP100 buffer (10 mM Tris-HCl pH 8.00, 100 mM NaCl, 0.1% NP-40) supplemented with 0,1 mM PMSF. Next, 4 pmol of MATR3 synthetic peptides were added incubating on rotation for 2 hours at 4°C. MATR3 peptides were incubated with the beads as negative control. Beads were washed 4 times with IPP100 buffer, boiled in 50 µl of Laemmli Sample Buffer (Bio-Rad), centrifuged and the eluted proteins were collected. Samples were stored at -20°C. Pull-down samples were boiled at 95°C for 5 minutes and bounded fractions (10%) were loaded on 15% SDS-Page acrylamide gel. The immunoblotting was performed following the procedure reported above but the wet transfer was performed at 200mA for 1.5 hours (instead of 2 hours) at 4°C. To test the interaction between DUX4 dbd and 6xHis-SUM03-MATR3(210-255), 40 pmol of 6xHis-SUMO3-MATR3(210-255) were immobilized on His-Select Nickel Affinity gel beads (Sigma) incubating 1 hour on rotation at 4°C in IPP100 buffer (10 mM Tris-HCl pH 8.00, 100 mM NaCl, 0.1% NP-40) supplemented with 0,1 mM PMSF. Next, 40 pmol of DUX4(15-155) without tag were added incubating on rotation for 2 hours at 4°C. DUX4(15-155) alone was incubated with the beads as negative control. Beads were washed 4 times with IPP100 buffer, boiled in 50 µl of Laemmli Sample Buffer (Bio-Rad), centrifuged and the eluted proteins were collected. Samples were stored at -20°C. Pull-down samples were boiled at 95°C for 5 minutes and bounded fractions (10%) were loaded on two identical 15% SDS-Page acrylamide gel. The immunoblotting was performed following the procedure reported below.

6xHis-DUX4 dbd = target: T2, 6xHis-DUX4 dbd (UniProt Q9UBX2 1-159); assay: GST pull-down with purified recombinant proteins
T2 construct: range 1-159; Expressed in E. coli from pET-GB1 and purified on nickel beads; The limits 1-159 come from the phrase pETGB1-6xHis-DUX4 dbd (residues 1-159); also called DUX4 dbd (HD1+HD2); not shown: 6xHis tag and GB1 solubility peptide of vector pET-GB1
T2 sequence (Q9UBX2 1-159): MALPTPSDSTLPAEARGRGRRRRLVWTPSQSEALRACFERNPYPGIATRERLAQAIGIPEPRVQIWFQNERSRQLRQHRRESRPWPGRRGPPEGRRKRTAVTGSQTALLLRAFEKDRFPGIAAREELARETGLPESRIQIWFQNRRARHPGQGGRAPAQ

T1 sequence (Q9UBX2 1-159): as above

binding result (6xHis-DUX4 dbd) | Molecule | interaction with DUX4 dbd (pulldown, synthetic peptides) (DUX4 dbd) | interaction with DUX4 dbd (pulldown, synthetic peptides) (DUX4 dbd; listed as Pep 2) | interaction with DUX4 dbd (pulldown, synthetic peptides) (DUX4 dbd; listed as Pep 3)
– | (Biotin)- SFDDRGPSLNPVLDYDHGSRSQESGYYDRMD YEDDRLRDGERCRDDSFFGETSHNYHKFDS-NH2 [Peptide 2] | interacted with DUX4 dbd | interact with DUX4 dbd | –
– | (Biotin)- ERCRDDSFFGETSHNYHKFDSEYERMGRGPG PLQERSLFEKKRGAPPSSNIEDFHGLLPK -NH2 [Peptide 3] | interacted with DUX4 dbd | – | interact with DUX4 dbd
no binding (tested: 40 pmol each) | GST-MATR3(2-151) (other, not shown: GST tag and thrombin site of vector pGEX-2tk) SKSFQQSSLSRDSQGHGRDLSAAGIGLLAAATQSLSMPASLGRMNQGTARLASLMNLGMSSSLNQQGAHSALSSASTSSHNLQSIFNIGSRGPLPLSSQHRGDADQASNILASFGLSARDLDELSRYPEDKITPENLPQILLQLKRRRTE | – | – | –
